ChEMBL document CHEMBL1759975, “Development of selective and reversible pyrazoline based MAO-B inhibitors: virtual screening, synthesis and biological evaluation” (Bioorg Med Chem Lett, 2011)

How the values were obtained:
[1] = biological target: T1, Amine oxidase [flavin-containing] A (Homo sapiens, UniProt P21397); test: Competitive inhibition of human recombinant MAO-A after 60 mins using p-tyramine as substrate by spectrophotometry
T1 sequence (P21397 whole entry): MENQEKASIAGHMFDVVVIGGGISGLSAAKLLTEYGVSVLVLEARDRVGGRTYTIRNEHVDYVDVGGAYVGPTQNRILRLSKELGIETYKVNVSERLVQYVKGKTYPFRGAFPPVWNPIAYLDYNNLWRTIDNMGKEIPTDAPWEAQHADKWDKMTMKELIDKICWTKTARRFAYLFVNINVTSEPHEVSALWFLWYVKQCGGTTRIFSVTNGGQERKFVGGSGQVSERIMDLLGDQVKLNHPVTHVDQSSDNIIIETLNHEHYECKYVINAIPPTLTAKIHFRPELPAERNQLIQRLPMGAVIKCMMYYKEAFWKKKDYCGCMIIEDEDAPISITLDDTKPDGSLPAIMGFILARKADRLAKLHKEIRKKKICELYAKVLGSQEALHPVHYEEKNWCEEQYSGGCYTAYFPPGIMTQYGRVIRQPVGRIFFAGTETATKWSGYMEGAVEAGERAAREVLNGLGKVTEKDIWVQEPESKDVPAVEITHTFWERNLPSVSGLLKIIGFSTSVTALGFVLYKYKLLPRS

[2] = biological target: T2, Amine oxidase [flavin-containing] A (Rattus norvegicus, UniProt P21396); test: Competitive inhibition of rat liver MAO-A after 60 mins using p-tyramine as substrate by spectrophotometry
T2 sequence (P21396 whole entry): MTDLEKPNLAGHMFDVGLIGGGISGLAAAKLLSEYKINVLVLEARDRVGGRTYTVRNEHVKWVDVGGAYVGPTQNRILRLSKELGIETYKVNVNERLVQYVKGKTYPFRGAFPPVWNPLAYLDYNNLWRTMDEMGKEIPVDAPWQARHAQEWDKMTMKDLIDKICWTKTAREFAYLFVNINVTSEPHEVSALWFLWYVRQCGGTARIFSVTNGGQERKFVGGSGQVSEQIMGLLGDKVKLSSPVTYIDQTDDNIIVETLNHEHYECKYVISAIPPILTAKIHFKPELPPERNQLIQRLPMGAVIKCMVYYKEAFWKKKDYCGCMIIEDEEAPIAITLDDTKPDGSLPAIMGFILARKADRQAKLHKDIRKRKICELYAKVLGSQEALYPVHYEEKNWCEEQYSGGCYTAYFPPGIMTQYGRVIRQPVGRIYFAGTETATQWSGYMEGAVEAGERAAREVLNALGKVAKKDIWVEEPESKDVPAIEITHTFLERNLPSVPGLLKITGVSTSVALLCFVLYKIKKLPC

[3] = biological target: T3, Amine oxidase [flavin-containing] B (Homo sapiens, UniProt P27338)
T3 sequence (P27338 whole entry): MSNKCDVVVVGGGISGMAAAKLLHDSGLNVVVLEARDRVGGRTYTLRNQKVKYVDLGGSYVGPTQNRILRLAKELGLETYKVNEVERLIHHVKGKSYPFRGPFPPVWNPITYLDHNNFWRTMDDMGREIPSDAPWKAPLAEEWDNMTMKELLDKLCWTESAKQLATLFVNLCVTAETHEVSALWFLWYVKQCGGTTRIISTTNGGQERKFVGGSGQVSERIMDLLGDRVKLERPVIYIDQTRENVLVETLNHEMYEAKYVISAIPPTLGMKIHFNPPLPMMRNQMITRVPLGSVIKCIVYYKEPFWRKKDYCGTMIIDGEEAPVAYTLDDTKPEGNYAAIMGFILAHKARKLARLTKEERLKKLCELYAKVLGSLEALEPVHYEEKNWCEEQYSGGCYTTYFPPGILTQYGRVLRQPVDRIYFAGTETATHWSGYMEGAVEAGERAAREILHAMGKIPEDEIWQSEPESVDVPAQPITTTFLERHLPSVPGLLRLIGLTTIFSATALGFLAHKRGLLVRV
Description: Competitive inhibition of human recombinant MAO-B after 60 mins using p-tyramine as substrate by spectrophotometry

[4] = biological target: T4, Amine oxidase [flavin-containing] B (Rattus norvegicus, UniProt P19643); test: Competitive inhibition of rat liver MAO-B after 60 mins using p-tyramine as substrate by spectrophotometry
T4 sequence (P19643 whole entry): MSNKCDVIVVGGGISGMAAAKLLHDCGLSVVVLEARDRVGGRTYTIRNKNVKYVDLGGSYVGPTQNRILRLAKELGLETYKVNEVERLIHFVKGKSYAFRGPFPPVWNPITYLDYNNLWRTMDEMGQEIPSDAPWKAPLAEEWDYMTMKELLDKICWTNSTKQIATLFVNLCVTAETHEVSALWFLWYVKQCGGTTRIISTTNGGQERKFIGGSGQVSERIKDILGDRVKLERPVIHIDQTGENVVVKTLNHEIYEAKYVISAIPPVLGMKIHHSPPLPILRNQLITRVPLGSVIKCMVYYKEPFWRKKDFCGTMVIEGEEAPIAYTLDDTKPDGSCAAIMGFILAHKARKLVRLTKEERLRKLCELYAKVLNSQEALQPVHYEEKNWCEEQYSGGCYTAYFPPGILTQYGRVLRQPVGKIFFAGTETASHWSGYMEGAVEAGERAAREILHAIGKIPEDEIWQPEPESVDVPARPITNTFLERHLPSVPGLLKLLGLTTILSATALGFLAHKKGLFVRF

Row | Compound | Ki [1] | Ki [2] | Ki [3] | Ki [4]
1 | Clc1ccc(C2CC(c3c4ccccc4cc4ccccc34)=NN2)cc1 (stereo not drawn) | 281 nM | 320 nM | 1.8 nM | 2.1 nM
2 | c1ccc(C2CC(c3c4ccccc4cc4ccccc34)=NN2)cc1 (stereo not drawn) | 332 nM | 397 nM | 4.21 nM | 3.43 nM
3 | O=[N+]([O-])c1cccc(C2CC(c3c4ccccc4cc4ccccc34)=NN2)c1 (stereo not drawn) | 32.2 nM | 43.9 nM | 0.31 nM | 0.45 nM
4 | c1ccc(C2CC(c3c4ccccc4cc4ccccc34)=NN2)nc1 (stereo not drawn) | 205 nM | 242 nM | 5.75 nM | 9.91 nM
5 | Oc1ccc(C2CC(c3c4ccccc4cc4ccccc34)=NN2)cc1 (stereo not drawn) | 225 nM | 385 nM | 7.51 nM | 6.75 nM
6 | Cc1ccc(C2CC(c3c4ccccc4cc4ccccc34)=NN2)cc1 (stereo not drawn) | 250 nM | 389 nM | 3.56 nM | 3.8 nM

More lines, in order of falling Ki [1], values ahead:

Row | Ki [1] | Ki [2] | Ki [3] | Ki [4] | Compound
7 | 301 nM | 230 nM | – | – | COc1ccc(C2CC(c3c4ccccc4cc4ccccc34)=NN2)cc1 (stereo not drawn)
8 | 81.5 nM | 95.6 nM | 5.54 nM | 4.77 nM | Oc1ccc(C2CC(c3c4ccccc4cc4ccccc34)=NN2)c(O)c1 (stereo not drawn)
9 | 69.9 nM | 77.6 nM | 7.35 nM | 5.91 nM | Oc1ccccc1C1CC(c2c3ccccc3cc3ccccc23)=NN1 (stereo not drawn)
10 | 17.1 nM | 20.1 nM | 1.15 nM | 2.3 nM | O=[N+]([O-])c1ccc(C2CC(c3c4ccccc4cc4ccccc34)=NN2)cc1 (stereo not drawn)
